Assay results reported in publication PMC6146285 (Journal of pharmacological and toxicological methods, 2018).
Read-outs that look alike come from different tables or passages of the source. Blank lines part the entries; values can stand above or below the compound they belong to.

Tests used:
Assay type in all cases: cell-based, human
[1] = test system: hiPSC-CMs; conditions: for Arrhythmia incidence by dose level: all sites and cell types tested; for FPDmax compared to pre-addition values: 30 min post compound addition, low risk compounds; for Arrhythmia: one site; for Inotropic effect (impedance signal): hiPSC-CMs; for Average % change in EFP amplitude / FPDmax: with increasing concentrations; for FPD prolongation: cell types other than CLS
[2] = test system: CDI (iCell Cardiomyocytes^2, Cellular Dynamics International) hiPSC-CMs
[3] = test system: PLR (Pluricyte Cardiomyocytes, Ncardia) hiPSC-CMs
[4] = test system: AXG (Cor.4U, Ncardia) hiPSC-CMs
[5] = test system: CLS (Cellartis Cardiomyocytes, Takara Bio Clontech) hiPSC-CMs
[6] = all sites and cell types, dose levels of Table 3

Compound: COc1ccc(CCN2CCC(Nc3nc4ccccc4n3Cc3ccc(F)cc3)CC2)cc1 [Astemizole]
Arrhythmia incidence by dose level ([1]; dose levels of Table 3): arrhythmia in most cases at dose 3, and almost all cases at dose 4

Compound: CN(C)CCCN1c2ccccc2Sc2ccc(Cl)cc21 [Chlorpromazine]
Arrhythmic events ([1]; independent of the cell type or site): did not induce arrhythmic events

Compound: COc1cc(N)c(Cl)cc1C(=O)NC1CCN(CCCOc2ccc(F)cc2)CC1OC (stereo not drawn) [Cisapride]
Arrhythmia incidence by dose level ([1]; dose levels of Table 3): arrhythmia in most cases at dose 3, and almost all cases at dose 4

Compound: CC[C@H]1OC(=O)[C@H](C)[C@@H](O[C@H]2C[C@@](C)(OC)[C@@H](O)[C@H](C)O2)[C@H](C)[C@@H](O[C@@H]2O[C@H](C)C[C@H](N(C)C)[C@H]2O)[C@](C)(OC)C[C@@H](C)C(=O)[C@H](C)[C@@H](O)[C@]1(C)O [Clarithromycin]
Arrhythmia incidence by dose level ([1]; dose levels of Table 3): arrhythmia in most cases at dose 3, and almost all cases at dose 4

BRCoV ([2]; CDI, post addition of 10 μM): large increase
Compound: CC(C)NCC(O)c1ccc(NS(C)(=O)=O)cc1 (stereo not drawn) [D,l Sotalol]
Arrhythmia detection starting at (dose level) [1, 6]: dose 3
Arrhythmic events ([2]; CDI, 10 μM): EAD-like events and ectopic beats
Beat rate ([2]; CDI, post addition of 10 μM): decrease
Impedance amplitude ([2]; CDI, post addition of 10 μM): remains unchanged

FPDmax compared to pre-addition values [1]: decrease
Compound: COc1ccc([C@@H]2Sc3ccccc3N(CCN(C)C)C(=O)[C@@H]2OC(C)=O)cc1 [Diltiazem]

FPDmax ([1]; all cell types at one site): increased
Compound: CC(C)N(CCC(C(N)=O)(c1ccccc1)c1ccccn1)C(C)C (stereo not drawn) [Disopyramide]
Arrhythmia ([1]; 10 and 100 μM): Arrhythmia was detected
Arrhythmia detection starting at (dose level) [1, 6]: dose 3
Inotropic effect (impedance signal) [1]: negative inotropic effect
Average % change in impedance amplitude ([1]; with increasing concentration, all cell types at one site): decreased
Average % change in EFP amplitude ([1]; all cell types at one site): decreased

FPDmax ([1]; all cell types at one site): increased
Compound: O=c1[nH]c2ccccc2n1CCCN1CCC(n2c(=O)[nH]c3cc(Cl)ccc32)CC1 [Domperidone]
Arrhythmia ([1]; 0.3, 3 μM): arrhythmia is marked
Arrhythmia incidence by dose level ([1]; dose levels of Table 3): arrhythmia in most cases at dose 3, and almost all cases at dose 4
Inotropic effect (impedance signal) [1]: negative inotropic effect
Average % change in EFP amplitude ([1]; all cell types at one site): decreased

FPDmax ([3]; 0.3 μM): increase
Beat rate coefficient of variation ([3]; post addition of 0.3 μM): increase
Compound: O=C(CCCN1CC=C(n2c(=O)[nH]c3ccccc32)CC1)c1ccc(F)cc1 [Droperidol]
Arrhythmia incidence by dose level ([1]; dose levels of Table 3): arrhythmia in most cases at dose 3, and almost all cases at dose 4
Arrhythmic events ([3]; 0.3 μM): rolling EAD-like events
Beat rate ([3]; post addition of 0.3 μM): decrease
Impedance amplitude ([3]; post addition of 0.3 μM): remains unchanged

FPDmax compared to pre-addition values [1]: not a significant change
Compound: CCOC(=O)N1CCC(=C2c3ccc(Cl)cc3CCc3cccnc32)CC1 [Loratadine]

FPDmax compared to pre-addition values [1]: decrease
Compound: COC(=O)C1=C(C)NC(C)=C(C(=O)OC)C1c1ccccc1[N+](=O)[O-] [Nifedipine]
Inotropic effect (impedance signal) [1]: negative inotropic effect
Chronic effect on cell viability (base impedance) ([4]; AXG, recorded over 24 h): time and concentration-dependent reduction of cell viability

FPDmax compared to pre-addition values [1]: decrease
Compound: CCOC(=O)C1=C(C)NC(C)=C(C(=O)OC)C1c1cccc([N+](=O)[O-])c1 (stereo not drawn) [Nitrendipine]

Compound: Cc1nccn1CC1CCc2c(c3ccccc3n2C)C1=O (stereo not drawn) [Ondansetron]
Arrhythmia incidence by dose level ([1]; dose levels of Table 3): arrhythmia in most cases at dose 3, and almost all cases at dose 4

Compound: O=c1[nH]c2ccccc2n1C1CCN(CCCC(c2ccc(F)cc2)c2ccc(F)cc2)CC1 [Pimozide]
Arrhythmia incidence by dose level ([1]; dose levels of Table 3): arrhythmia in most cases at dose 3, and almost all cases at dose 4
Arrhythmogenicity ([4]; site 4, AXG cells): not arrhythmogenic

Compound: C=C[C@H]1C[N@@]2CC[C@H]1C[C@@H]2[C@@H](O)c1ccnc2ccc(OC)cc12 [Quinidine]
Arrhythmia detection starting at (dose level) [1, 6]: dose 2
Incidence of FPDmax>10% or > 30% started at (dose level) [1, 6]: dose 1

Compound: Cc1nc2n(c(=O)c1CCN1CCC(c3noc4cc(F)ccc34)CC1)CCCC2 [Risperidone]
Change in the FPD ([5]; CLS cells): no significant change
Change in the FPD ([4]; AXG cells): no significant change
Change in the FPD ([2]; CDI cells): > 10%

Compound: CC/C(=C(\c1ccccc1)c1ccc(OCCN(C)C)cc1)c1ccccc1 [Tamoxifen]
Decrease of average % change in EFP amplitude ([2]; CDI, 3 μM, one site): ~ 40%
Decrease of average % change in FPDmax ([2]; CDI, 3 μM, one site): ~ 40%
Increase in beat rate ([2]; CDI, 3 μM, one site): ~ 40%
Changes in average impedance signals ([2]; CDI, 0.3, 0.9 and 3 μM): No significant changes

Number of experiments with quiescence ([1]; other experiments): 4
Compound: CC(C)(C)c1ccc(C(O)CCCN2CCC(C(O)(c3ccccc3)c3ccccc3)CC2)cc1 (stereo not drawn) [Terfenadine]
Number of experiments with arrhythmia ([1]; site 4, AXG and site 4, CLS): 2

Compound: COc1cc2c(Nc3ccc(Br)cc3F)ncnc2cc1OCC1CCN(C)CC1 [Vandetanib]
Arrhythmia detection starting at (dose level) [1, 6]: dose 3

Compound: CN(CCOc1ccc(NS(C)(=O)=O)cc1)CCc1ccc(NS(C)(=O)=O)cc1 [dofetilide]
FPD prolongation ([1]; 0.5 nM): approx. 10%
FPD prolongation ([1]; 10 nM, arrhythmia present): ~100%
Effect on FPD and arrhythmia ([1]; wells treated with 5 nM and 10 nM): prolongation of FPD and arrhythmia
FPD prolongation upon application ([5]; CLS hiPSC-CMs, 0.5-10 nM): did not exhibit an expected FPD prolongation
